Structures can show the parent of a compound that is named as a salt.
Assays:
Recombinant human MAO-B = biological target: T1, Recombinant human MAO-B (Homo sapiens, UniProt P27338); assay: Human recombinant MAO-B inhibition; assay type: biochemical; settings: benzylamine 100 μM
T1 construct: purchased Sigma Aldrich
T1 sequence (P27338 1-520): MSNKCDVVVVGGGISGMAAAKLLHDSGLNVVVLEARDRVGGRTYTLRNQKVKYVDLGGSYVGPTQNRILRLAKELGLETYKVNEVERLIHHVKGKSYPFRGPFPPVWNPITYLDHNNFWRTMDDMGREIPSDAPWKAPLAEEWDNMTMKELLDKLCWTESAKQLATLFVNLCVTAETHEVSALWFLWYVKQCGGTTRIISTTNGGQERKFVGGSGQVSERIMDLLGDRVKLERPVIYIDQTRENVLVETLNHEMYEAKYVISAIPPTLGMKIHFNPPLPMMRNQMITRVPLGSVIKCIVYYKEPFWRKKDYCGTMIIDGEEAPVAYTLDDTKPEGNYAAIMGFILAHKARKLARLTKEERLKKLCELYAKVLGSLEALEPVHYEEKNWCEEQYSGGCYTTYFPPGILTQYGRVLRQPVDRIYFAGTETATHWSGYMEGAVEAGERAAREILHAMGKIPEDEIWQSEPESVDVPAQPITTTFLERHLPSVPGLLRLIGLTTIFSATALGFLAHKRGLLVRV
Protocol: Method to Determine the Ability of Compounds of Formula I to Inhibit Human Recombinant MAO-B
The specificity of the compounds of this invention was tested by determining their ability to inhibit MAO-B activities in vitro. Recombinant human MAO-B (0.06 mg/mL; Sigma Aldrich) was used as source of MAO-B enzyme activities. The assay was performed in a similar way as for human SSAO/VAP-1 (Example 46) except, the substrate benzylamine was used at 100 μM.

[1] = biological target: T2, human recombinant SSAO/VAP-1 (Homo sapiens, UniProt Q16853); assay: Human recombinant SSAO/VAP-1 amine oxidase inhibition; assay type: biochemical; settings: 30 min preincubation at 37° C., 600 μM benzylamine
T2 construct: a cloned cDNA template corresponding to residues 34-763 of human SSAO/VAP-1; TEV cleavage site (N); made in house
T2 sequence (Q16853 34-763): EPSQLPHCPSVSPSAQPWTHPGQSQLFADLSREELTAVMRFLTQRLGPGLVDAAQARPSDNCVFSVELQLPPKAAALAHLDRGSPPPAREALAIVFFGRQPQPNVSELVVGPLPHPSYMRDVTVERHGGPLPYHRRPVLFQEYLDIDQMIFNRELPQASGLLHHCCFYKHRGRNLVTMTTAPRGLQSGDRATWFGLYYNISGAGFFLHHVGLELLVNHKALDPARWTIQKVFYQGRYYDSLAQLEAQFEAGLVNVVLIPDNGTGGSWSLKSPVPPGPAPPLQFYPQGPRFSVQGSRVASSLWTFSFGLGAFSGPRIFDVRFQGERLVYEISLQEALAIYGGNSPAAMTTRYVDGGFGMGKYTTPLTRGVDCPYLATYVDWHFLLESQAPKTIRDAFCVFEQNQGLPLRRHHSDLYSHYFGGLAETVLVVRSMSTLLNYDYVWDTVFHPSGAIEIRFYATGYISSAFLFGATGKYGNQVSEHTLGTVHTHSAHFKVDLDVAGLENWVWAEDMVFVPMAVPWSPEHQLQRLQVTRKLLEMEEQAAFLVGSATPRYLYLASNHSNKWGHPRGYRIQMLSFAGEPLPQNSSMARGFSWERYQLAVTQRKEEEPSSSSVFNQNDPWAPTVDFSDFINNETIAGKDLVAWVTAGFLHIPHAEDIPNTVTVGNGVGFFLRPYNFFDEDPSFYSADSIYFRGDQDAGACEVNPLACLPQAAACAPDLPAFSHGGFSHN
Protocol: Method to Determine the Ability of Compounds of Formula I to Inhibit Human Recombinant SSAO/VAP-1
Human recombinant SSAO/VAP-1 amine oxidase activity was determined using the coupled colorimetric method as described for monoamine oxidase, copper-containing amine oxidases and related enzymes (Holt A. and Palcic M., A peroxidase-coupled continuous absorbance plate-reader assay for flavin monoamine oxidases, copper-containing amine oxidases and related enzymes. Nat Protoc 2006; 1: 2498-2505). Briefly, a cloned cDNA template corresponding to residues 34-763 of human SSAO/VAP-1, and incorporating a mouse Ig kappa (κ) signal sequence, N-terminal flag epitope tag and tobacco etch virus (TEV) cleavage site, was assembled in a mammalian expression vector (pLO-CMV) by Geneart AG. This vector containing human SSAO/VAP-1 residues was transfected into CHO-K1 glycosylation mutant cell line, Lec 8. A clone stably expressing human SSAO/VAP-1 was isolated and cultured in large scale. Active human SSAO/VAP-I was purified and recovered using immunoaffinity chromatography. This was used as the source for SSAO/VAP-1 activity. A high-throughput colorimetric assay was developed using either 96 or 384 well format. Briefly, in a standard 96 well plate assay 50 μL of purified human SSAO/VAP-1 (0.25 μg/mL) in 0.1 M sodium phosphate buffer (pH 7.4) was added into each well. Test compounds were dissolved in DMSO and tested in a Concentration Response Curve (CRC) with 4-11 data points, typically in the micromolar or nanomolar range after incubation with human SSAO/VAP-1 for 30 min at 37° C. After 30 min incubation, 50 μL of the reaction mixture containing 600 μM benzylamine (Sigma Aldrich), 120 μM Amplex Red (Sigma Aldrich) and 1.5 U/mL horseradish peroxidase (Sigma Aldrich) prepared in 0.1 M sodium phosphate buffer (pH 7.4) were added to the corresponding well. The fluorescence unit (RFU) was read every 2.5 min for 30 min at 37° C. excitation 565 nm and emission 590 (Optima; BMG labtech). The slope of the kinetics for each well was calculated using MARS data analysis software (BMG labtech) and this value was used to deduce the IC50 value (Dotmatics).

SMILES | IC50 (Recombinant human MAO-B) | IC50 [1]
Cc1nn(C/C(F)=C/CN)c(C)c1Cc1ccc(S(=O)(=O)N2CCOCC2)cc1 [Compound 6, (Z)-4-(3,5-dimethyl-4-(4-(morpholinosulfonyl)benzyl)-1H-pyrazol-1-yl)-3-fluorobut-2-en-1-amine hydrochloride] | > 30 µM | > 30 µM
Cc1nn(C/C(F)=C/CN)c(C)c1Cc1ccc(S(=O)(=O)N2CCCC2)cc1 [Compound 7, (Z)-4-(3,5-dimethyl-4-(4-(pyrrolidin-1-ylsulfonyl)benzyl)-1H-pyrazol-1-yl)-3-fluorobut-2-en-1-amine hydrochloride] | > 30 µM | > 10 µM
Cc1nn(C/C(F)=C/CN)c(C)c1Cc1ccc(S(=O)(=O)N(C)C(C)C)cc1 [Compound 8, (Z)-4-((1-(4-amino-2-fluorobut-2-en-1-yl)-3,5-dimethyl-1H-pyrazol-4-yl)methyl)-N-isopropyl-N-methylbenzenesulfonamide hydrochloride] | > 30 µM | > 10 µM
Cc1nn(C/C(F)=C/CN)c(C)c1Cc1ccc(S(=O)(=O)N(C)C)c2ccccc12 [Compound 9, (Z)-4-((1-(4-amino-2-fluorobut-2-en-1-yl)-3,5-dimethyl-1H-pyrazol-4-yl)methyl)-N,N-dimethyl naphthalene-1-sulfonamide hydrochloride] | > 10 µM | > 10 µM
Cc1nn(Cc2ccc(S(=O)(=O)N(C)C)cc2)c(C)c1C/C(F)=C/CN [Compound 10, (Z)-4-((4-(4-amino-2-fluorobut-2-en-1-yl)-3,5-dimethyl-1H-pyrazol-1-yl)methyl)-N,N-dimethylbenzenesulfonamide hydrochloride] | > 10 µM | < 10 µM
Cc1nn(C/C(F)=C/CN)c(C)c1Cc1ccc(S(=O)(=O)NC(C)C)cc1 [Compound 11, (Z)-4-((1-(4-amino-2-fluorobut-2-en-1-yl)-3,5-dimethyl-1H-pyrazol-4-yl)methyl)-N-isopropyl benzenesulfonamide hydrochloride] | > 30 µM | < 10 µM
Cc1nn(C/C(F)=C/CN)c(C)c1Cc1ccc(S(C)(=O)=O)cc1Cl [Compound 12, (Z)-4-(4-(2-chloro-4-(methylsulfonyl)benzyl)-3,5-dimethyl-1H-pyrazol-1-yl)-3-fluorobut-2-en-1-amine hydrochloride] | > 30 µM | < 10 µM
CCc1nn(C/C(F)=C/CN)c(CC)c1Cc1ccc(S(=O)(=O)N(C)C)cc1 [Compound 13, (Z)-4-((1-(4-amino-2-fluorobut-2-en-1-yl)-3,5-diethyl-1H-pyrazol-4-yl)methyl)-N,N-dimethyl benzenesulfonamide hydrochloride] | > 30 µM | > 30 µM
Cc1nn(C/C(F)=C/CN)c(C)c1Cc1ccc(C(=O)N(C)C)cc1 [Compound 14, (Z)-4-((1-(4-amino-2-fluorobut-2-en-1-yl)-3,5-dimethyl-1H-pyrazol-4-yl)methyl)-N,N-dimethylbenzamide hydrochloride] | > 30 µM | > 30 µM
Cc1nn(C/C(F)=C/CN)c(C)c1Cc1ccc(S(C)(=O)=O)c(Cl)c1 [Compound 16, (Z)-4-(4-(3-chloro-4-(methylsulfonyl)benzyl)-3,5-dimethyl-1H-pyrazol-1-yl)-3-fluorobut-2-en-1-amine hydrochloride] | > 30 µM | > 10 µM
Cc1nn(C/C(F)=C/CN)c(C)c1Cc1ccc(S(=O)(=O)N(C)C)c(OC(F)(F)F)c1 [Compound 17, (Z)-4-((1-(4-amino-2-fluorobut-2-en-1-yl)-3,5-dimethyl-1H-pyrazol-4-yl)methyl)-N,N-dimethyl-2-(trifluoromethoxy)benzenesulfonamide hydrochloride] | > 30 µM | > 10 µM
Cc1nn(C/C(F)=C/CN)c(C)c1Cc1ccc(S(=O)(=O)N(C)C)c(C(F)(F)F)c1 [Compound 18, (Z)-4-((1-(4-amino-2-fluorobut-2-en-1-yl)-3,5-dimethyl-1H-pyrazol-4-yl)methyl)-N,N-dimethyl-2-(trifluoromethyl)benzenesulfonamide hydrochloride] | > 30 µM | > 30 µM
Cc1nn(C/C(F)=C/CN)c(C)c1Cc1cc(F)c(S(=O)(=O)N(C)C)cc1F [Compound 19, (Z)-4-((1-(4-amino-2-fluorobut-2-en-1-yl)-3,5-dimethyl-1H-pyrazol-4-yl)methyl)-2,5-difluoro-N,N-dimethylbenzenesulfonamide hydrochloride] | > 30 µM | > 30 µM
CNS(=O)(=O)c1ccc(Cn2nc(C)c(C/C(F)=C/CN)c2C)c(Cl)c1 [Compound 20, (Z)-4-((4-(4-amino-2-fluorobut-2-en-1-yl)-3,5-dimethyl-1H-pyrazol-1-yl)methyl)-3-chloro-N-methylbenzenesulfonamide hydrochloride] | > 30 µM | < 10 µM
Cc1nn(Cc2ccc(S(C)(=O)=O)cc2Cl)c(C)c1C/C(F)=C/CN [Compound 21, (Z)-4-(1-(2-chloro-4-(methylsulfonyl)benzyl)-3,5-dimethyl-1H-pyrazol-4-yl)-3-fluorobut-2-en-1-amine hydrochloride] | > 30 µM | < 10 µM
CNS(=O)(=O)c1ccc(Cn2nc(C)c(C/C(F)=C/CN)c2C)cc1Cl [Compound 22, (Z)-4-((4-(4-amino-2-fluorobut-2-en-1-yl)-3,5-dimethyl-1H-pyrazol-1-yl)methyl)-2-chloro-N-methylbenzenesulfonamide hydrochloride] | > 30 µM | > 10 µM
CNS(=O)(=O)c1ccc(Cn2nc(C)c(C/C(F)=C/CN)c2C)c(C(F)(F)F)c1 [Compound 23, (Z)-4-((4-(4-amino-2-fluorobut-2-en-1-yl)-3,5-dimethyl-1H-pyrazol-1-yl)methyl)-N-methyl-3-(trifluoromethyl)benzenesulfonamide hydrochloride] | > 30 µM | > 30 µM
Cc1nn(Cc2ccc(S(C)(=O)=O)c(Cl)c2)c(C)c1C/C(F)=C/CN [Compound 24, (Z)-4-(1-(3-chloro-4-(methylsulfonyl)benzyl)-3,5-dimethyl-1H-pyrazol-4-yl)-3-fluorobut-2-en-1-amine hydrochloride] | > 30 µM | > 30 µM
Cc1nn(Cc2cc(F)c(S(=O)(=O)N(C)C)cc2F)c(C)c1C/C(F)=C/CN [Compound 25, (Z)-4-((4-(4-amino-2-fluorobut-2-en-1-yl)-3,5-dimethyl-1H-pyrazol-1-yl)methyl)-2,5-difluoro-N,N-dimethylbenzenesulfonamide hydrochloride] | > 30 µM | > 30 µM

Source: US20200069648A1, “HALOALLYLAMINE PYRAZOLE DERIVATIVE INHIBITORS OF LYSYL OXIDASES AND USES THEREOF” (Pharmaxis Ltd., priority 2017, published 2020)
